Experimental findings from patent US7026339B2, “Inhibitors of HCV NS5B polymerase” (priority 2003, dated 2006) are described below.

Molecules are shown by their SMILES.

The subject of this assay is HuH-7 replicon cells 5–15 and 9–13 (HCV replication). The experiment in a line: Inhibition of viral replication in HuH-7 replicon cells (HCV RNA / GAPDH RNA by multiplex RT-PCR). To be noted: Hepatitis C virus, 72 h; inhibiting 50% of replication; HuH-7 replicon cells, 3 days; read-out: IC50. Format: cell-based. How it is done: Compounds were evaluated for inhibition of viral replication according to published procedures (Bartenschlager, R., et. al., Science, 1999, 285, 110) with modifications as follows.
HuH-7 replicon cells 5–15 and 9–13 were cultured in Dulbecco's minimal essential medium (DMEM) containing high glucose and supplemented with 10% fetal bovine serum (FBS), L-glutamine (2 mM), non-essential amino acids (1×), Penicillin (100 IU/mL)/Streptomycin (100 μg/mL) and G418 (Geneticin, 750 μg/mL). Unless otherwise specified, all media components were obtained from Invitrogen. Replicon cell line stocks were maintained as sub-confluent monolayers by passaging every Monday (1:6 split) and Thursday (1:10 split) and incubated at 37° C. with 5% CO2. Tissue culture plates (96-well white clear bottom plates, Corning #3610) were seeded at 7×10^3 cells/well and incubated for 24 hours prior to addition of the compounds.
Compounds in dry powder form were diluted in DMSO (30 mM stock). Serial dilutions of each Compound in DMSO (10 mM–0.1 mM) were performed in a 96-well polypropylene plate using a microtiter format. Culture media (200 μl) was added to the corresponding wells of a sterile 96-well round bottom plate. Diluted compound (2 μl) was added to the corresponding wells of the medial plate (final compound concentrations: 100 μM–1 μM). Culture media was removed from the corresponding wells of the 96-well plate containing the replicon cells and 150 μl diluted compound added. Media containing 1% DMSO and a serially diluted IFN were included on each plate. The cultures were incubated at 37° C. with 5% CO2 for 3 days. Cultures were observed visually for cytotoxicity or compound precipitation prior to RNA extraction described below.
Total cellular RNA was extracted by spin column technology (RNeasy 96, Qiagen) using the vacuum methodology according to the manufacturer's protocol. In brief, culture media was removed and 100 μl RLT lysis buffer containing 0.14M β-mercaptoethanol (β-ME) was added to each well. The plate was kept flat on the laboratory bench and shaken vigorously to lyse the cells. An equal volume of 70% ETOH was mixed with the lysate and added to the corresponding columns of the RNeasy 96-well plate. Vacuum was applied to draw the lysate through the filters. After ventilating the plate, buffer RW1 (1 mL) was drawn through each column. The waste tray was emptied and the filters washed twice with buffer RPE (1 mL/wash). After ventilating the tray, the RNeasy plate was removed and the bottom of the plate struck several times on a stack of paper towels to remove excess wash buffer. The waste tray was removed from the vacuum apparatus and the RNeasy 96-well plate dried by applying vacuum for 10 minutes. Total cellular RNA was eluted from the columns with two washes of 60 μl RNase-free water.
Relative quantitative multiplex RT-PCR was performed using TaqMan (TM) EZ RT Core Reagent kit (Perkin Elmer) according to the manufacturer's protocol (PE Applied Biosystems User Bulletin #2). Primer 061 (NT 61–82) and 139 (NT 139–158) amplifying a short region in the 5′ untranslated region of the HCV genome were utilized at 300 nM final concentrations. Probe #3 (NT 97–119) labeled with FAM reporter dye was utilized at 200 nM final concentration. Pre-developed human GAPDH primers and probe labeled with VIC reporter dye were obtained from PE Applied Biosystems (# 4310884E) and used according to the manufacturer's protocol. TM RT-PCR master mix was prepared containing the above primers/probe for both target RNA. Total cellular RNA (2 μl) was added to the reaction tubes of a 96-well optical plate that corresponded to the wells of the replicon culture plate. The final volume of each reaction was 50 μl. A standard curve was prepared from ten-fold serial dilutions of total cellular RNA extracated from 10^6 replicon cells and eluted in 30 μl RNase-free water. […]
Take `O=C(Cc1ccc(Cl)cc1)N/N=C/c1ccccc1OS(=O)(=O)c1ccc(C(F)(F)F)cc1` [Compound 7, 2-((E)-{2-[2-(4-chlorophenyl)acetyl]hydrazono}methyl)-phenyl 4-(trifluoromethyl)benzenesulfonate]: the IC50 – broadly, the concentration that inhibits the measured activity by half – is less than 5 µM.

For the molecule `CC(=O)Nc1ccc(CNc2cccc(CC(=O)N/N=C/c3ccccc3OS(=O)(=O)c3ccc(C(F)(F)F)cc3)c2)cc1` [Compound 99, 2-((E)-{2-[2-(3-{[4-(acetylamino)benzyl]amino}phenyl)acetyl]-hydrazono}methyl)phenyl 4-(trifluoromethyl)benzenesulfonate], the IC50 was less than 5 µM.

Take `COc1cccc(CC(=O)N/N=C/c2cccc(F)c2OS(=O)(=O)c2ccc(C)cc2)c1` [Compound 159]: the IC50 fell in the range of 5 to 50 µM.

As to `O=C(Cc1cccc(N2CCCC2)c1)N/N=C/c1ccccc1OS(=O)(=O)c1ccc(C(F)(F)F)cc1` [Compound 98, 2-((E)-{2-[2-(3-pyrrolidin-1-ylphenyl)acetyl]hydrazono}methyl)phenyl4-(trifluoromethyl)benzenesulfonate], the IC50 was 5 to 50 µM.

On to `O=C(CC1CCCO1)N/N=C/c1ccccc1OS(=O)(=O)c1ccc(C(F)(F)F)cc1` (centres unmarked) [Compound 95, 2-{(E)-[2-(2-tetrahydrofuran-2-ylacetyl)hydrazono]methyl}phenyl4-(trifluoromethyl)benzenesulfonate], for which the IC50 was less than 5 µM.

Take `COc1cccc(CC(=O)N/N=C/c2ccccc2OS(=O)(=O)c2ccc(C(F)(F)F)cc2)c1OC` [Compound 24, 2-((E)-{2-[2-(2,3-dimethoxyphenyl)acetyl]hydrazono}methyl)-phenyl 4-(trifluoromethyl)benzenesulfonate]: the IC50 is less than 5 µM.

As to `O=C(Cc1ccccc1)N/N=C/c1ccccc1OS(=O)(=O)c1ccc2ccccc2c1` [Compound 119, 2-{(E)-[2-(2-phenylacetyl)hydrazono]methyl}phenylnaphthalene-2-sulfonate], the IC50 was less than 5 µM.

On to `CS(=O)(=O)c1ccc(CC(=O)N/N=C/c2ccccc2OS(=O)(=O)c2ccc(C(F)(F)F)cc2)cc1` [Compound 69, 2-[(E)-(2-{2-[4-(methylsulfonyl)phenyl]acetyl}hydrazono)-methyl]phenyl 4-(trifluoromethyl)benzenesulfonate], for which the IC50 was greater than 50 µM.

In the case of `O=C(Cc1ccccn1)N/N=C/c1ccccc1OS(=O)(=O)c1ccc(C(F)(F)F)cc1` [Compound 29, 2-{(E)-[2-(2-pyridin-2-ylacetyl)hydrazono]methyl}phenyl 4-(trifluoromethyl)benzenesulfonate], the IC50 was less than 5 µM.

As for `COc1cccc(CC(=O)N/N=C/c2ccc(C)cc2OS(=O)(=O)c2ccc(C(F)(F)F)cc2)c1` [Compound 178, 2-((E)-{[(3-methoxyphenyl)acetyl]hydrazono}methyl)-5-methylphenyl 4-(trifluoromethyl)benzenesulfonate], the IC50 was less than 5 µM.

Consider `O=C(CC1CCCC1)N/N=C/c1ccccc1OS(=O)(=O)c1ccc(C(F)(F)F)cc1` [Compound 84, 2-{(E)-[2-(2-cyclopentylacetyl)hydrazono]methyl}phenyl4-(trifluoromethyl)benzenesulfonate], for which the IC50 is less than 5 µM.

On to `O=C(Cc1ccc2c(c1)OCO2)NC1CC1c1ccccc1OS(=O)(=O)c1ccc(C(F)(F)F)cc1` (centres unmarked) [Compound 253, 2-(2-{[2-(1,3-benzodioxol-5-yl)acetyl]amino}cyclopropyl)phenyl 4-(trifluoromethyl)benzenesulfonate], for which the IC50 is greater than 50 µM.

As for `CN(c1ccccc1/C=N/NC(=O)c1cc(Cl)ccc1Cl)S(=O)(=O)c1ccc(C(F)(F)F)cc1` [Compound 240, N-(2-{(E)-[(2,5-dichlorobenzoyl)hydrazono]methyl}phenyl)-N-methyl-4-(trifluoromethyl)benzenesulfonamide], the IC50 was 1 µM.

With `COc1cccc(CC(=O)N/N=C/c2c(Cl)cccc2OS(=O)(=O)c2ccc(C(F)(F)F)cc2)c1` [Compound 193, 3-chloro-2-((E)-{[(3-methoxyphenyl)acetyl]hydrazono}methyl)-phenyl 4-(trifluoromethyl)benzenesulfonate], the IC50 was less than 5 µM.

`COc1cccc(CC(=O)N/N=C/c2ccccc2OS(=O)(=O)c2ccc(N3CCOCC3)nc2)c1` [Compound 216, 2-((E)-{2-[2-(3-methoxyphenyl)acetyl]hydrazono}methyl)-phenyl 6-morpholin-4-ylpyridine-3-sulfonate]: the IC50 lay within 5 to 50 µM.

`O=C(N/N=C/c1ccccc1OS(=O)(=O)c1ccc(C(F)(F)F)cc1)c1ccccc1C(F)(F)F` [Compound 104, 2-((E)-{2-[2-(trifluoromethyl)benzoyl]hydrazono}methyl)-phenyl 4-(trifluoromethyl)benzenesulfonate]: the IC50 is less than 5 µM.

Regarding `O=C(Cc1ccccc1)N/N=C/c1ccccc1OS(=O)(=O)c1ccc(Cl)c(Cl)c1` [Compound 125, 2-{(E)-[2-(2-phenylacetyl)hydrazono]methyl}phenyl3,4-dichlorobenzenesulfonate], the IC50 was less than 5 µM.

Turning to `COc1cccc(CC(=O)N/N=C/c2ccccc2OS(=O)(=O)c2ccc(-c3cnco3)s2)c1` [Compound 200, 2-((E)-{2-[2-(3-methoxyphenyl)acetyl]hydrazono}methyl)-phenyl 5-(1,3-oxazol-5-yl)thiophene-2-sulfonate], the IC50 was less than 5 µM.

`O=C(Cc1cccc(OC(F)(F)F)c1)N/N=C/c1ccccc1OS(=O)(=O)c1ccc(C(F)(F)F)cc1` [Compound 21, 2-[(E)-(2-{2-[3-(trifluoromethoxy)phenyl]acetyl}hydrazono)-methyl]phenyl 4-(trifluoromethyl)benzenesulfonate]: the IC50 was less than 5 µM.

Consider `COc1cc(CC(=O)N/N=C/c2ccccc2OS(=O)(=O)c2ccc(C(F)(F)F)cc2)cc(OC)c1OC` [Compound 55, 2-((E)-{2-[2-(3,4,5-trimethoxyphenyl)acetyl]hydrazono}methyl)-phenyl 4-(trifluoromethyl)benzenesulfonate], for which the IC50 is greater than 50 µM.

Take `O=C(Cc1cccc(Cl)c1)N/N=C/c1cccnc1OS(=O)(=O)c1ccc(C(F)(F)F)cc1` [Compound 215, 3-((E)-{2-[2-(3-chlorophenyl)acetyl]hydrazono}methyl)-pyridin-2-yl 4-(trifluoromethyl)benzenesulfonate]: the IC50 was greater than 50 µM.

As to `O=C(N/N=C/c1ccccc1OS(=O)(=O)c1ccc(C(F)(F)F)cc1)c1cccnc1` [Compound 76, 2-{(E)-[2-(pyridin-3-ylcarbonyl)hydrazono]methyl}phenyl 4-(trifluoromethyl)benzenesulfonate], the IC50 lay in the range of 5 to 50 µM.

For `COc1cccc(CC(=O)N/N=C/c2ccccc2OS(=O)(=O)c2ccc(OC(C)C)cc2)c1` [Compound 186, 2-((E)-{2-[2-(3-methoxyphenyl)acetyl]hydrazono}methyl)-phenyl 4-isopropoxybenzenesulfonate], the IC50 was less than 5 µM.

In the case of `O=S(=O)(Cc1ccccc1)N/N=C/c1ccccc1OS(=O)(=O)c1ccc(C(F)(F)F)cc1` [Compound 251, 2-{(E)-[2-(benzylsulfonyl)hydrazono]methyl}phenyl4-(trifluoromethyl)benzenesulfonate], the IC50 fell in the range of 5 to 50 µM.

With `Cc1ccccc1CC(=O)N/N=C/c1ccccc1OS(=O)(=O)c1ccc(C(F)(F)F)cc1` [Compound 42, 2-((E)-{-[2-(2-methylphenyl)acetyl]hydrazono}methyl)-phenyl 4-(trifluoromethyl)benzenesulfonate], the IC50 is less than 5 µM.

In the case of `O=C(Cc1ccccc1)N/N=C/c1ccccc1OCc1cccc2ccccc12` [Compound 238, N′-{(1E)-[2-(1-naphthylmethoxy)phenyl]methylene}-2-phenylacetohydrazide], the IC50 is 5 to 50 µM.
